Data on 31 compounds can be found in patent publication US8912209B2, “Rock inhibitors” (Amakem NV, priority 2010, dated 2014).

T2 sequence (O75116 whole entry): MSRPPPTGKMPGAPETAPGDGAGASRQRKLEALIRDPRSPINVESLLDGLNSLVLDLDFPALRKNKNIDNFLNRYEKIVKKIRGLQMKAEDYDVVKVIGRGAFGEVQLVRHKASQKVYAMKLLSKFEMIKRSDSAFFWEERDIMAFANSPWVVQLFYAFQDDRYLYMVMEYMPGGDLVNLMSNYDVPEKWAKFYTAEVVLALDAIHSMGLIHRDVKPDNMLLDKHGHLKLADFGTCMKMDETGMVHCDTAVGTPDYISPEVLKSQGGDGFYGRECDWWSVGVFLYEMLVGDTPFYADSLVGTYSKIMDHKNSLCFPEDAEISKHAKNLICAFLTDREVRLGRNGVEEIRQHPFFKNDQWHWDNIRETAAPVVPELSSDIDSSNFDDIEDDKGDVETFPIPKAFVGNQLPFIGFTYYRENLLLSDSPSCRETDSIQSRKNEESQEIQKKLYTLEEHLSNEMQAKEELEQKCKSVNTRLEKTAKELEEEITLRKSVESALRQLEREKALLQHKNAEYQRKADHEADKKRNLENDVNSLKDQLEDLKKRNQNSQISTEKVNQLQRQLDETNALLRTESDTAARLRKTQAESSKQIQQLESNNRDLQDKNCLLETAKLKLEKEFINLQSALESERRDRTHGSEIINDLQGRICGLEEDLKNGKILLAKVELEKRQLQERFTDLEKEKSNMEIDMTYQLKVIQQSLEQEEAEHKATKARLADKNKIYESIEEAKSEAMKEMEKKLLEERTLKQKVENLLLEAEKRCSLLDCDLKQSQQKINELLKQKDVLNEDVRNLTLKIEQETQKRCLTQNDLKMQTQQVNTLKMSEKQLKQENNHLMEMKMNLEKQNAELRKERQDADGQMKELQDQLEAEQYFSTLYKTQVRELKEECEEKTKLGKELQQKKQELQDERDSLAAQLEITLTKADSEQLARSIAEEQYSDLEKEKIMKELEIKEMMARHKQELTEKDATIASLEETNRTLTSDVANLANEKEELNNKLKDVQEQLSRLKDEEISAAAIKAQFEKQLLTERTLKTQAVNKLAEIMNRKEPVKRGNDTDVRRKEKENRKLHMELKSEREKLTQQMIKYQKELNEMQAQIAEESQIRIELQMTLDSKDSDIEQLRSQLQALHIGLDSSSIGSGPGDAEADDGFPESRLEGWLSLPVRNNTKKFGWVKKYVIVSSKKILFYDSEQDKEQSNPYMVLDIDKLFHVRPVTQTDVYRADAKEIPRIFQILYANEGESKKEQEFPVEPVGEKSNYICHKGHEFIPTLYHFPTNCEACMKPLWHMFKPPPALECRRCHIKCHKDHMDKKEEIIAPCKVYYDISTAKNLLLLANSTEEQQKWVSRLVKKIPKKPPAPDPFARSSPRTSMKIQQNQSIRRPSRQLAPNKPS

The target of one experiment is T1, ROCK II (Homo sapiens, UniProt O75116).
T1 construct: purchased Proqinase
T1 sequence (O75116 whole entry): as above
Kind of experiment: ROCK II kinase inhibition, Method 1 Proqinase setup (33P radioisotopic protein kinase assay). The class given is biochemical. The conditions noted are these: 33P radioisotopic assay, 1 μM ATP, read-out: IC50 Meth. 1. The method, then:
A ^33P radioisotopic protein kinase assay is used to determine the IC50 for inhibiting ROCK II. A final 50 μl reaction cocktail, containing 60 mM HEPES-NaOH (pH 7.5), 3 mM MgCl2, 3 mM MnCl2, 3 μM Na-orthovanadate, 1.2 mM DTT, 1 μM ATP, 50 μg/ml PEG20.000, 1% (v/v) DMSO, 1 μM ATP (approx. 3×10^5 cpm ^33P-γ-ATP), the substrate (Substrate: S6 peptide—2000 ng/well) and recombinant protein kinase (0.5 nM-2.5 ng/well) is mixed on a shaker and incubated at 30° C. for 80 minutes. The reaction is stopped by the addition of 50 μl of a 2% solution of H3PO4 and mixed on a shaker. After washing twice with 200 μl of a 0.9% solution of NaCl, the dry plate is counted.
As for “2′-Aminomethyl-5′- (pyridin-4-ylcarbamoyl)- biphenyl-3-carboxylic acid 2-methoxy-propyl ester [Compound 42]”, the IC50 is 0.1 to 1 µM.
As for `COC(=O)c1cccc(-c2cc(C(=O)Nc3ccncc3)ccc2CN)c1` [Compound 1, 2′-Aminomethyl-5′-(pyridin-4-ylcarbamoyl)-biphenyl-3-carboxylic acid methyl ester], the IC50 was less than 0.1 µM.
Still for that read-out and setting: the same measure for `COC(=O)c1ccc(-c2cc(C(=O)Nc3ccncc3)ccc2CN)cc1` [Compound 2, 2′-Aminomethyl-5′-(pyridin-4-ylcarbamoyl)-biphenyl-4-carboxylic acid methyl ester]: 1 to 10 µM; for `CCOC(=O)c1cccc(-c2cc(C(=O)Nc3ccncc3)ccc2CN)c1` [Compound 7, 2′-Aminomethyl-5′-(pyridin-4-ylcarbamoyl)-biphenyl-3-carboxylic acid ethyl ester]: 0.1 to 1 µM.
Same read-out and setting: to `CCCOC(=O)c1cccc(-c2cc(C(=O)Nc3ccncc3)ccc2CN)c1` [Compound 10, 2′-Aminomethyl-5′-(pyridin-4-ylcarbamoyl)-biphenyl-3-carboxylic acid propyl ester] belongs 0.1 to 1 µM; to `CCCCOC(=O)c1cccc(-c2cc(C(=O)Nc3ccncc3)ccc2CN)c1` [Compound 14, 2′-Aminomethyl-5′-(pyridin-4-ylcarbamoyl)-biphenyl-3-carboxylic acid butyl ester], 0.1 to 1 µM; to `CCCCCOC(=O)c1cccc(-c2cc(C(=O)Nc3ccncc3)ccc2CN)c1` [Compound 15, 2′-Aminomethyl-5′-(pyridin-4-ylcarbamoyl)-biphenyl-3-carboxylic acid pentyl ester], 0.1 to 1 µM.
On the same count and under the same terms, the same measure for `CCCCCCOC(=O)c1cccc(-c2cc(C(=O)Nc3ccncc3)ccc2CN)c1` [Compound 17, 2′-Aminomethyl-5′-(pyridin-4-ylcarbamoyl)-biphenyl-3-carboxylic acid hexyl ester]: 0.1 to 1 µM.
Consider `CC(C)OC(=O)c1cccc(-c2cc(C(=O)Nc3ccncc3)ccc2CN)c1` [Compound 26, 2′-Aminomethyl-5′-(pyridin-4-ylcarbamoyl)-biphenyl-3-carboxylic acid isopropyl ester], for which the concentration for half-maximal inhibition (IC50) fell in the range of 0.1 to 1 µM.
Still for that read-out and setting: the same measure for `NCc1ccc(C(=O)Nc2ccncc2)cc1-c1cccc(C(=O)OC2CCC2)c1` [Compound 31, 2′-Aminomethyl-5′-(pyridin-4-ylcarbamoyl)-biphenyl-3-carboxylic acid cyclobutyl ester]: 0.1 to 1 µM; for `NCc1ccc(C(=O)Nc2ccncc2)cc1-c1cccc(C(=O)OC2CCCC2)c1` [Compound 32, 2′-Aminomethyl-5′-(pyridin-4-ylcarbamoyl)-biphenyl-3-carboxylic acid cyclopentyl ester]: 0.1 to 1 µM.
Same read-out and setting: to `NCc1ccc(C(=O)Nc2ccncc2)cc1-c1cccc(C(=O)OC2CCCCC2)c1` [Compound 35, 2′-Aminomethyl-5′-(pyridin-4-ylcarbamoyl)-biphenyl-3-carboxylic acid cyclohexyl ester] belongs 0.1 to 1 µM; to `NCc1ccc(C(=O)Nc2ccncc2)cc1-c1cccc(C(=O)OCC2CCCC2)c1` [Compound 38, 2′-Aminomethyl-5′-(pyridin-4-ylcarbamoyl)-biphenyl-3-carboxylic acid cyclopentylmethyl ester], 0.1 to 1 µM.
For `NCc1ccc(C(=O)Nc2ccncc2)cc1-c1cccc(C(=O)OCC2CCCCC2)c1` [Compound 39, 2′-Aminomethyl-5′-(pyridin-4-ylcarbamoyl)-biphenyl-3-carboxylic acid cyclohexylmethyl ester], the IC50 is 0.1 to 1 µM.
In the case of `COCCOC(=O)c1cccc(-c2cc(C(=O)Nc3ccncc3)ccc2CN)c1` [Compound 41, 2′-Aminomethyl-5′-(pyridin-4-ylcarbamoyl)-biphenyl-3-carboxylic acid 2-methoxy-ethyl ester], the IC50 was 0.1 to 1 µM.
Consider `NCc1ccc(C(=O)Nc2ccncc2)cc1-c1cccc(C(=O)OC2CCOCC2)c1` [Compound 43, 2′-Aminomethyl-5′-(pyridin-4-ylcarbamoyl)-biphenyl-3-carboxylic acid tetrahydro-pyran-4-yl ester], for which the half-inhibitory concentration (IC50) is 0.1 to 1 µM.
Take `CN1CCC(OC(=O)c2cccc(-c3cc(C(=O)Nc4ccncc4)ccc3CN)c2)CC1` [Compound 48, 2′-Aminomethyl-5′-(pyridin-4-ylcarbamoyl)-biphenyl-3-carboxylic acid 1-methyl-piperidin-4-yl ester]: the IC50 was 0.1 to 1 µM.
The same measure, in the same setting: the same measure for `NCc1ccc(C(=O)Nc2ccncc2)cc1-c1cccc(C(=O)Oc2ccccc2F)c1` [Compound 53, 2′-Aminomethyl-5′-(pyridin-4-ylcarbamoyl)-biphenyl-3-carboxylic acid 2-fluoro-phenyl ester]: 0.1 to 1 µM.
Still for that read-out and setting: the same measure for `NCc1ccc(C(=O)Nc2ccncc2)cc1-c1cccc(C(=O)OCC2COc3ccccc3O2)c1` (stereo not shown) [Compound 55, 2′-Aminomethyl-5′-(pyridin-4-ylcarbamoyl)-biphenyl-3-carboxylic acid 2,3-dihydro-benzo[1,4]dioxin-2-ylmethyl ester]: less than 0.1 µM.
Still for that read-out and setting: the same measure for `COC(=O)CNC(=O)c1cccc(-c2cc(C(=O)Nc3ccncc3)ccc2CN)c1` [Compound 102, {[2′-Aminomethyl-5′-(pyridin-4-ylcarbamoyl)-biphenyl-3-carbonyl]-amino}-acetic acid methyl ester]: less than 0.1 µM.
For the compound `NCc1ccc(C(=O)Nc2ccncc2)cc1-c1cccc(C(=O)NCC(N)=O)c1` [Compound 106, 6-Aminomethyl-biphenyl-3,3′-dicarboxylic acid 3′-carbamoylmethyl-amide 3-pyridin-4-ylamide], the IC50 is less than 0.1 µM.
As to `NCc1ccc(C(=O)Nc2ccncc2)cc1-c1cccc(C(=O)NCCC2COC(=O)O2)c1` (stereo not shown) [Compound 113, 6-Aminomethyl-biphenyl-3,3′-dicarboxylic acid 3′-{[2-(2-oxo-[1,3]dioxolan-4-yl)-ethyl]-amide} 3-pyridin-4-ylamide], the IC50 lay within 0.1 to 1 µM.
For the compound `COC(=O)C1CCCCN1C(=O)c1cccc(-c2cc(C(=O)Nc3ccncc3)ccc2CN)c1` (stereo not shown) [Compound 122, 1-[2′-Aminomethyl-5′-(pyridin-4-ylcarbamoyl)-biphenyl-3-carbonyl]-piperidine-2-carboxylic acid methyl ester], the IC50 fell in the range of 1 to 10 µM.
Consider `COC(=O)C1CCN(C(=O)c2cccc(-c3cc(C(=O)Nc4ccncc4)ccc3CN)c2)CC1` [Compound 124, 1-[2′-Aminomethyl-5′-(pyridin-4-ylcarbamoyl)-biphenyl-3-carbonyl]-piperidine-4-carboxylic acid methyl ester], for which the IC50 is 1 to 10 µM.
As for `COC(=O)C1CCN(C(=O)c2cccc(-c3cc(C(=O)Nc4ccncc4)ccc3CN)c2)C1` (stereo not shown) [Compound 127, 1-[2′-Aminomethyl-5′-(pyridin-4-ylcarbamoyl)-biphenyl-3-carbonyl]-pyrrolidine-3-carboxylic acid methyl ester], the IC50 lay within 1 to 10 µM.
On the same count and under the same terms, the same measure for `NCc1ccc(C(=O)Nc2ccncc2)cc1-c1cccc(NCCSC2CCOC2=O)c1` (stereo not shown) [Compound 136, 6-Aminomethyl-3′-[2-(2-oxo-tetrahydro-furan-3-ylsulfanyl)-ethylamino]-biphenyl-3-carboxylic acid pyridin-4-ylamide]: 0.1 to 1 µM.

A further experiment addresses T2, ROCKα/ROCKII (Homo sapiens, UniProt O75116).
T2 construct: purchased Upstate Biotechnology 14-451
Kind of experiment: ROCK inhibition, Method 2 fluorescence polarization (FP) assay, ROCK IMAP Kit. The format is biochemical. The conditions noted are these: 10 μM ATP, read-out: IC50 Meth. 2. The method, then:
The inhibition assays were performed with a fluorescence polarization (FP) assay using the commercially available ROCK IMAP Kit from Molecular Devices (Product ID. No. R8093), essentially in accordance with the protocol supplied by the manufacturer. […] The enzyme mix ROCKα/ROCKII was obtained from Upstate Biotechnology (Product ID No 14-451).
In summary, all compounds were screened in the wells of a 384 well plate for enzymatic inhibition with concentrations varying from 100 μM to 0.3 nM using a stepwise 3 (or 2)-fold dilution.
To perform the assay, 1 μl of a solution of the compound to be tested in DMSO (at each concentration) was added to 2 μl of a solution of the enzyme in 10 mM Tris-HCl, 10 mM MgCl2, 0.1% BSA, 0.05% NaN3, pH 7,2. The final concentration of the enzyme was 2.6 nM.
After incubating for 30 minutes at RT, 2 μl of a mixture of ATP and the protein substrate in 10 mM Tris-HCl, 10 mM MgCl2, 0.1% BSA, 0.05% NaN3, pH 7.2 was added. The final concentration of the ATP was 10 μM and final concentration of protein substrate was 0.2 μM.
After incubating for 60 minutes at RT, 12 μl of the IMAP Binding Solution (mix of the IMAP Binding Buffer A (1×) and the IMAP Binding Reagent (from the ROCK IMAP kit)) was added.
The mixture thus obtained (total volume: 17 μl) was incubated for 60 minutes at RT, upon which the fluorescence polarization was measured using an automated plate reader (Perkin Elmer, Model Envision 2100-0010 HTS) with FP filters: excitation filter FITC FP 480 and emission filters FITC FP P-pol 535 and FITC FP S-pol 535 (Perkin-Elmer). The results were fitted to a curve using the XL-Fit algorithm and IC50 values were calculated for each fitted curve, again using the XL-Fit algorithm.
As to `CC(N)c1ccc(C(=O)Nc2ccncc2)cc1-c1cccc2[nH]c(C(=O)Oc3ccccc3)cc12` (stereo not shown) [Compound 173, 4-[2-(1-Amino-ethyl)-5-(pyridin-4-ylcarbamoyl)-phenyl]-1H-indole-2-carboxylic acid phenyl ester], the IC50 fell in the range of 0.1 to 1 µM.
On the same count and under the same terms, to `CCCOC(=O)c1cccc(-c2cc(C(=O)Nc3ccncc3F)ccc2CN)c1` [Compound 174] belongs 0.1 to 1 µM; to `NCc1ccc(C(=O)Nc2ccncc2F)cc1-c1cccc(C(=O)Oc2ccccc2)c1` [Compound 175], less than 0.1 µM; to `CC(N)c1ccc(C(=O)Nc2ccncc2)cc1-c1cccc(C(=O)Oc2ccc3c(c2)OC(=O)CC3)c1` (stereo not shown) [Compound 176], less than 0.1 µM.
On to `CC(N)c1ccc(C(=O)Nc2ccncc2F)cc1-c1cccc(OCCSC2CCOC2=O)c1` (stereo not shown) [Compound 177], for which the IC50 was in the range of 0.1 to 1 µM.
